In US4315003A, “Compositions containing azo compounds and use thereof for therapeutic treatment” (priority 1979, dated 1982):

Columns and labels:
[1] = tested on: rabbit eye mucosa; assay: Therapeutic action on hyperemia of rabbit eye mucosa (induced by 0.03 N sodium hydroxide); assay type: in vivo, rabbit (male Japanese albino); parameters: key: conjunctival erythema score per Fukui and Ikemoto standards; settings: for Average Erythema Score After Treatment: 50 μl instilled, before treatment 1, solvent alone 1; for Average Erythema Score Before Treatment: baseline
Description: Therapeutic Action on Hyperemia of Rabbit Eye Mucosa
100 μl of 0.03 N sodium hydroxide was instillated into one eye to induce hyperemia in male Japanese albino rabbits weighting about 3 Kg. A group of 3 rabbits was used for test, which were caused an erythema score 1 on their conjunctive based on the standards of Fukui and Ikemoto (Gendai-no-Rinshao, 4, pp. 277 (1970)). The test compound was dissolved in a 10% NIKKOL HCO-60 (trademark: Nikko Chemical Co., Ltd.) and instilled to the test rabbit at a rate of 50 μl.

[2] = Acute toxicity in mice; settings: mouse, in vivo, deaths for seven days
Description: A group of 10 male mice of ddY strain weighing about 25 grams was administered orally or intraperitoneally with a suspension of the test compound in a 5% arabic gum solution in the amount of 10 ml per kg. of body weight. The LD50 values were calculated by means of the Wilcoxon-Litchfield method on the number of mice died for seven days after administration.

[3] = tested on: rats; assay: Diuretic action in rats (urinary volume during 5 hours after oral administration); assay type: in vivo, rat (male, Wistar strain); settings: urinary volume 5 hours, control = 100%
Description: A group of 5 male rats of Wistar strain having each a body weight ranging from 180 to 200 grams was used for each test compound. The rats were fasted overnight and then abstained from water two hours before the administration of the test compound. The test compound was prepared by suspending the compound in a 5% arabic gum-saline solution and administered orally to the rats in the amount of 25 ml per kg. of body weight.
The urine was collected during 5 hours after administration and its volume was measured. The diuretic actions of the test compounds were calculated as the urinary volume of the control group where no test compound was administered being as 100%.

[4] = Solubility; assay type: physicochemical
[5] = tested on: rats; assay: Hypertensive action in rats (blood pressure, oral, without anesthesia); assay type: in vivo, rat
Description: Hypertensive Action in Rats
A suspension of the test compound in a 5% arabic gum solution was orally to rats catheterized before more than 24 hours according to Mizokami et al. (Nihon Taishitsugaku Zasshi, 32, p.p. 59-63 (1969)).

[6] = tested on: isolated guinea-pig atria; assay: Cardiotropic action in isolated guinea-pig atria; parameters: species or system guinea-pig (male); settings: Cavia porcellus, 30° C.; for inhibition at 1 µg/mL / activation at 1 µg/mL: 1 μg/ml; for inhibition at 3 µg/mL / activation at 3 µg/mL: 3 μg/ml
Description: Cardiotropic Action in Isolated Guinea-Pig Atria
The isolated atria from male Guinea-Pigs weighing about 350 grams were hanged in an organ bath filled with a Krebs-Henselite's solution and bubbled with a mixed gas (5% CO2 and 95% O2) at 30° C. A solution of the test compound in dimethylsulfoxide was added to the bath. The contractile force and beats were then measured and calibrated into a percentage increase of the contractile force and a percentage decrease of the beats.

[7] = read-out: Percentage Decrease in Beats
[8] = read-out: Percentage Increase of Contractile Force

| SMILES | Average Erythema Score Before Treatment [1] | LD50 at 168 h ([2]; ip) | LD50 at 168 h ([2]; po, orally) | Solubility in acetone [4] | Solubility in hexane [4] | Solubility in methanol [4] | Solubility in water [4] | Diuretic Activity ([3]; 5.0 mg/kg) | Diuretic Activity ([3]; 10.0 mg/kg) | Diuretic Activity ([3]; 20.0 mg/kg) | also measured |
| --- | --- | --- | --- | --- | --- | --- | --- | --- | --- | --- | --- |
| COc1ccc(Cl)cc1N=Nc1ncc[nH]1 [Compound A, 2-[(2-methoxy-5-chlorophenyl)azo]-1H-imidazole] | 1 | 795 mg/kg | 1280 mg/kg | readily soluble | less soluble | readily soluble | less soluble |  |  |  | Average Erythema Score After Treatment ([1]; 0.05%): 0.33; Diuretic Activity ([3]; 0.5 mg/kg): 133%; Diuretic Activity ([3]; 1.0 mg/kg): 183%; Diuretic Activity ([3]; 2.0 mg/kg): 329%; Variation in Blood Pressures, Duration Period ([5]; 1 mg/kg): 55 min; Variation in Blood Pressures, Percentage Increase ([5]; 1 mg/kg): 49%; inhibition at 1 µg/mL [6, 7]: 5.4%; activation at 1 µg/mL [6, 8]: 15.4% |
| COc1ccc(F)cc1N=Nc1ncc[nH]1 [Compound B, 2-[(2-methoxy-5-fluorophenyl)azo]-1H-imidazole] | 1 | 322 mg/kg | 462 mg/kg | readily soluble | less soluble | readily soluble | less soluble |  |  |  | Average Erythema Score After Treatment ([1]; 0.05%): 0.33; Diuretic Activity ([3]; 1.0 mg/kg): 154%; Diuretic Activity ([3]; 2.0 mg/kg): 275%; Variation in Blood Pressures, Duration Period ([5]; 2 mg/kg): 65 min; Variation in Blood Pressures, Percentage Increase ([5]; 2 mg/kg): 42%; inhibition at 1 µg/mL [6, 7]: 2.3%; activation at 1 µg/mL [6, 8]: 11.5% |
| COc1ccc(Br)cc1N=Nc1ncc[nH]1 [Compound C, 2-[(2-methoxy-5-bromophenyl)azo]-1H-imidazole] | 1 | > 1000 mg/kg | > 1500 mg/kg | readily soluble | sparingly soluble | readily soluble | sparingly soluble | 171% | 283% |  | Average Erythema Score After Treatment ([1]; 0.2%): 0.33; Variation in Blood Pressures, Duration Period ([5]; 5 mg/kg): 70 min; Variation in Blood Pressures, Percentage Increase ([5]; 5 mg/kg): 40%; inhibition at 3 µg/mL [6, 7]: 4.2%; activation at 3 µg/mL [6, 8]: 7.4% |
| COc1ccc(I)cc1N=Nc1ncc[nH]1 [Compound D] | 1 | > 1000 mg/kg | > 1500 mg/kg | readily soluble | sparingly soluble | readily soluble | sparingly soluble | 138% | 183% |  | Average Erythema Score After Treatment ([1]; 0.2%): 0.5; Variation in Blood Pressures, Duration Period ([5]; 5 mg/kg): 50 min; Variation in Blood Pressures, Percentage Increase ([5]; 5 mg/kg): 35%; inhibition at 3 µg/mL [6, 7]: 3.6%; activation at 3 µg/mL [6, 8]: 6.9% |
| COc1ccccc1N=Nc1ncc[nH]1 [Compound E, 2-[(2-methoxyphenyl)azo]-1H-imidazole] | 1 | 630 mg/kg | 1010 mg/kg | readily soluble | sparingly soluble | readily soluble | sparingly soluble |  | 175% | 206% | Average Erythema Score After Treatment ([1]; 0.1%): 0.5; Variation in Blood Pressures, Duration Period ([5]; 10 mg/kg): 85 min; Variation in Blood Pressures, Percentage Increase ([5]; 10 mg/kg): 52%; inhibition at 10 µg/mL ([6]; 10 μg/ml, read-out: Percentage Decrease in Beats): 2.2%; activation at 10 µg/mL ([6]; 10 μg/ml, read-out: Percentage Increase of Contractile Force): 5.7% |
| NS(=O)(=O)c1cc(C(=O)O)c(NCc2ccco2)cc1Cl [furosemide, reference compound] |  |  |  |  |  |  |  | 113% | 188% | 292% |  |
| Nc1nc(N)c2nc(-c3ccccc3)c(N)nc2n1 [triamterene, reference compound] |  |  |  |  |  |  |  |  | 192% | 242% |  |
